# Data from ChEMBL document CHEMBL3390845, “Development of second generation amidinohydrazones, thio- and semicarbazones as Trypanosoma cruzi-inhibitors bearing benzofuroxan and benzimidazole 1,3-dioxide core scaffolds” (Medchemcomm, 2010).
# Columns and labels:
# [1] = target: Cruzipain (Trypanosoma cruzi) (UniProt P25779); test: Inhibition of Trypanosoma cruzi Cruzipain using Z-Phe-Arg-AMC as substrate at 100 uM at pH 7.3 measured for 10 mins by spectrofluorimetric analysis relative to control
# Cruzipain (Trypanosoma cruzi), sequence (P25779 123-467 limits assumed): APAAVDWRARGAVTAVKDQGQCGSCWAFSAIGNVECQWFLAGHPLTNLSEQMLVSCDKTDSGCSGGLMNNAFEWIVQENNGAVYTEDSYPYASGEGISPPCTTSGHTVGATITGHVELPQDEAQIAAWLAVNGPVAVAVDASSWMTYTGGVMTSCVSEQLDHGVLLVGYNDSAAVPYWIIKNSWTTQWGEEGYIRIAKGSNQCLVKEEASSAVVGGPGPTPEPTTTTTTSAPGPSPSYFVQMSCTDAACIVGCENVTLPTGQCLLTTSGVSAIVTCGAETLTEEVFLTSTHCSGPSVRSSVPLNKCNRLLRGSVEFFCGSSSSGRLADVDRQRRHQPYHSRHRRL
# [2] = target: Cruzipain (Trypanosoma cruzi) (UniProt P25779); test: Inhibition of Trypanosoma cruzi Cruzipain using Z-Phe-Arg-AMC as substrate measured for 10 mins by spectrofluorimetric analysis relative to control
# [3] = Hemolytic activity in human RBC assessed as hemoglobin release after 24 hrs by spectrophotometry; assay type: ADME, cell-based, Erythrocyte; details: for ID50: erythrocyte, 24 h; for HC50 at 24 h: human red blood cells (RBC), read-out: ID50
# [4] = target: Cruzipain (Trypanosoma cruzi) (UniProt P25779); test: Inhibition of Trypanosoma cruzi Cruzipain using Z-Phe-Arg-AMC as substrate at 100 uM at pH 5.3 measured for 10 mins by spectrofluorimetric analysis relative to control
# [5] = target: Cruzipain (Trypanosoma cruzi) (UniProt P25779); test: Inhibition of Trypanosoma cruzi Cruzipain using Z-Phe-Arg-AMC as substrate at 100 uM at pH 7.3 measured for 10 mins by spectrofluorimetric analysis relative to control in presence of Triton X-100
# [6] = tested on: Trypanosoma cruzi; test: Antitrypanosomal activity against epimastigotes of Trypanosoma cruzi Tulahuen 2 assessed as parasite growth inhibition after 5 days; assay type: functional; details: Tulahuen 2, 120 h, read-out: ID50 (the source's name)
# [7] = Cytotoxicity in mouse J774 cells assessed as cell viability after 48 hrs by MTT assay; assay type: cell-based; details: read-out: ID50
# [8] = Selectivity index, ratio of ID50 for mouse J774 cells to ID50 for epimastigotes of Trypanosoma cruzi Tulahuen 2; assay type: toxicity, cell-based; details: read-out: Selectivity Index
# [9] = Selectivity index, ratio of ID50 for human RBC to ID50 for epimastigotes of Trypanosoma cruzi Tulahuen 2
Structure (SMILES),inhibition [1],ID50 [2],inhibition [4],inhibition [5],IC50 [6],ID50 [3],HC50 at 24 h [3],CC50 at 48 h [7],selectivity ratio [8],Selectivity Index [9]
N=C(N)N/N=C\c1ccccc1OCc1ccc2no[n+]([O-])c2c1,39%,> 100 µM,,,> 25 µM,,58 µM,< 100 µM,,
CC1(C)[N+]([O-])=c2ccc(COc3cccc(/C=N/NC(N)=S)c3)cc2=[N+]1[O-],95%,64 µM,,,24 µM,,141 µM,,,
CC1(C)[N+]([O-])=c2ccc(COc3ccccc3/C=N\NC(=N)N)cc2=[N+]1[O-],2.5%,> 100 µM,,,> 25 µM,,114 µM,,,
O=Cc1cccc(OCc2ccc3no[n+]([O-])c3c2)c1,43%,100 µM,,,28 µM,,50 µM,,,
NC(=S)N/N=C\c1ccccc1OCc1ccc2no[n+]([O-])c2c1,49%,100 µM,,,> 25 µM,,189 µM,< 100 µM,,
[O-][n+]1onc2ccc(/C=N/N=C/c3ccccc3O)cc21,,68 µM,,,> 25 µM,,,,,
C/C(=N/NC(=N)N)c1ccccc1OCc1ccc2no[n+]([O-])c2c1,21%,> 100 µM,,,16.6 µM,,> 200 µM,,,
C=CCNC(=S)N/N=C/c1ccc(OCc2ccc3no[n+]([O-])c3c2)cc1,38%,> 100 µM,,,> 25 µM,ND(Insoluble),,,,
CC1(C)[N+]([O-])=c2ccc(COc3ccc(/C=N/NC(N)=O)cc3)cc2=[N+]1[O-],0%,> 100 µM,,,> 25 µM,,> 200 µM,,,
CC1(C)[N+]([O-])=c2ccc(COc3ccc(/C=N/NC(=S)Nc4ccccc4)cc3)cc2=[N+]1[O-],72%,85 µM,,,> 25 µM,,< 50 µM,,,
N=C(N)N/N=C/c1ccc(OCc2ccc3no[n+]([O-])c3c2)cc1,,32 µM,,,,,> 200 µM,,,
CC1(C)[N+]([O-])=c2ccc(COc3ccc(C=O)cc3)cc2=[N+]1[O-],35.5%,> 100 µM,,,17 µM,,65 µM,< 100 µM,,
CC1(C)[N+]([O-])=c2ccc(COc3cccc(C=O)c3)cc2=[N+]1[O-],45%,100 µM,,,> 25 µM,,< 50 µM,,,
CC1(C)[N+]([O-])=c2ccc(COc3ccc(/C=N/NC(N)=S)cc3)cc2=[N+]1[O-],13.7%,> 100 µM,,,17 µM,ND(Insoluble),,,,
C[C@@H]1[C@H](O)[C@@H](C)/C=C/C=C/C=C/C=C/C=C/C=C/C=C/[C@H](O[C@@H]2O[C@H](C)[C@@H](O)[C@H](N)[C@@H]2O)C[C@@H]2O[C@](O)(C[C@@H](O)C[C@@H](O)[C@H](O)CC[C@@H](O)C[C@@H](O)CC(=O)O[C@H]1C)C[C@H](O)[C@H]2C(=O)O [AMPHOTERICIN B],,,,,,,1.5 µM,,,10
NC(=S)N/N=C/c1ccc(OCc2ccc3no[n+]([O-])c3c2)cc1,,43 µM,,,,,> 200 µM,,26.7,> 13.3
NC(=S)N/N=C/c1cccc(OCc2ccc3no[n+]([O-])c3c2)c1,80%,78 µM,,,15 µM,ND(Insoluble),,,,
NC(=O)N/N=C\c1ccccc1OCc1ccc2no[n+]([O-])c2c1,7%,> 100 µM,,,> 25 µM,,> 100 µM,< 100 µM,,
NC(=O)N/N=C/c1ccc(OCc2ccc3no[n+]([O-])c3c2)cc1,,> 100 µM,,,,,> 200 µM,,,
CC1CS(=O)(=O)CCN1/N=C/c1ccc([N+](=O)[O-])o1 (stereo not given) [NIFURTIMOX],,,,,,,> 100 µM,,,13
N=C(N)N/N=C/c1cccc(OCc2ccc3no[n+]([O-])c3c2)c1,42%,100 µM,28%,,> 25 µM,,> 100 µM,,,
O=Cc1ccc(OCc2ccc3no[n+]([O-])c3c2)cc1,6.3%,> 100 µM,,,,,< 50 µM,,,
[O-][n+]1onc2ccc(/C=N/N=C/c3cc(Br)ccc3O)cc21,,73 µM,,,25 µM,,,,,
CC(=O)c1ccccc1OCc1ccc2c(c1)=[N+]([O-])C(C)(C)[N+]=2[O-],0%,> 100 µM,,,> 25 µM,,< 50 µM,,,
C=CCNC(=S)N/N=C\c1ccccc1OCc1ccc2no[n+]([O-])c2c1,11%,> 100 µM,,,23 µM,,139 µM,138 µM,,
C=CCNC(=S)N/N=C/c1ccc(OCc2ccc3c(c2)=[N+]([O-])C(C)(C)[N+]=3[O-])cc1,51%,100 µM,,,23 µM,,> 100 µM,,,

# Continued, in another order:
inhibition [1],ID50 [2],inhibition [4],inhibition [5],IC50 [6],Structure (SMILES),ID50 [3],HC50 at 24 h [3],CC50 at 48 h [7],selectivity ratio [8],Selectivity Index [9]
100%,55 µM,79%,90%,13 µM,C=CCNC(=S)N/N=C/c1cccc(OCc2ccc3no[n+]([O-])c3c2)c1,ND(Insoluble),,,,
0%,> 100 µM,,,4.7 µM,CC1(C)[N+]([O-])=c2ccc(COc3ccccc3/C=N\NC(N)=O)cc2=[N+]1[O-],,50 µM,,,
0%,> 100 µM,,,3.6 µM,[O-][n+]1onc2ccc(COc3ccccc3/C=N\NC(=S)Nc3ccccc3)cc21,,> 200 µM,> 400 µM,> 111,> 55.6
95%,75 µM,,,7 µM,[O-][n+]1onc2ccc(COc3ccc(/C=N/NC(=S)Nc4ccccc4)cc3)cc21,ND(Insoluble),,,,
0%,> 100 µM,,,6.3 µM,O=Cc1ccccc1OCc1ccc2no[n+]([O-])c2c1,,> 100 µM,78 µM,12.4,> 15.9
35%,> 100 µM,,,14 µM,CC1(C)[N+]([O-])=c2ccc(COc3ccccc3/C=N\NC(N)=S)cc2=[N+]1[O-],,> 200 µM,,,
,,,,7.2 µM,C=CCNC(=S)N/N=C/c1ccc2c(c1)=[N+]([O-])C(C)(C)[N+]=2[O-],,,,,
6.6%,> 100 µM,,,2.7 µM,C=CCNC(=S)N/N=C\c1ccccc1OCc1ccc2c(c1)=[N+]([O-])C(C)(C)[N+]=2[O-],ND(Insoluble),,,,
0%,> 100 µM,,,7.7 µM,CC1(C)[N+]([O-])=c2ccc(COc3ccccc3/C=N\NC(=S)Nc3ccccc3)cc2=[N+]1[O-],,66 µM,< 100 µM,,
12%,> 100 µM,,,7 µM,CC(=O)c1ccccc1OCc1ccc2no[n+]([O-])c2c1,,> 200 µM,,,
,78 µM,,,8.3 µM,[O-][n+]1onc2ccc(/C=N/NC(=S)Nc3ccccc3)cc21,,,,,
